Test results taken from publication PMC8539145, “Function and Characterization Analysis of BodoOBP8 from Bradysia odoriphaga (Diptera: Sciaridae) in the Recognition of Plant Volatiles and Sex Pheromones” (Insects, 2021).
pIC50, pKd, pKi: −log10 of the molar value. “And” between values parts separate entries of the source, which are not always exact repeats. Equal entries are not always repeated. Where two headings read alike, the source gives them in different places.

Target: BodoOBP8 (Bradysia odoriphaga, UniProt A0A2S0X9G3)
Sequence (A0A2S0X9G3 entry or part of it): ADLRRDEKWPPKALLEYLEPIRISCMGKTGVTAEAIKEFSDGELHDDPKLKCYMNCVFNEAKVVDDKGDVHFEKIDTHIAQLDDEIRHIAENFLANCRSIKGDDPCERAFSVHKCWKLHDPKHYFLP
Experiment: Fluorescence competitive binding assay (1-NPN probe) with recombinant BodoOBP8
Procedure: For the binding assays, all test ligands (Table S1) were dissolved in methanol, and N-phenyl-1-naphthylamine (1-NPN) was used as a fluorescent probe.

[1] = Ki, recombinant BodoOBP8, calculated from IC50 of 1-NPN displacement
[2] = recombinant BodoOBP8, calculated from IC50 of 1-NPN displacement, read-out: Ki
[3] = recombinant BodoOBP8, displacement of 1-NPN, read-out: IC50
[4] = pH 7.4, Figure 3B, read-out: Ki

Question: How did the pIC50 turn out when `Cc1ccc(C(C)C)cc1O` [Carvacrol] was run?
Answer: < 4.30

Question: What about the pKi [1] of the same molecule?
Answer: < 4.30

Question: How did the pKi [2] turn out when `CCCCOC(=O)CCC(C)=O` [Butyl levulinate] was run?
Answer: < 4.30

Question: What about the pIC50 [3] of the same molecule?
Answer: < 4.30

Question: `C=C1CCC2CC1C2(C)C` (stereo not drawn) [ß-pinene] was tested. Which pKi [2] did it give?
Answer: < 4.30

Question: What about the pIC50 [3] of the same molecule?
Answer: < 4.30

Question: `C/C1=C\CC/C(C)=C/CC(C)(C)/C=C/C1` [α-Humulene] was tested. Which pKi [2] did it give?
Answer: < 4.30

Question: And the pIC50 [3]?
Answer: < 4.30

Question: `C=CC(C)(O)CCC=C(C)C` (stereo not drawn) [Linalool] was tested. Which pIC50 did it give?
Answer: < 4.30

Question: And the pKi [1]?
Answer: < 4.30

Question: What does the source list for `CC(C)=CCCC(C)CCO` (stereo not drawn) [Citronellol]?
Answer: pKi [2]: < 4.30; pIC50 [3]: < 4.30

Question: How did the pKi [4] turn out when `CCCCCCCCCCCCCCCCC` [n-Heptadecane] was run?
Answer: 5.39

Question: And the pKi [2]?
Answer: 5.39 and > 5.00

Question: And the pIC50 [3]?
Answer: 5.22

Question: What does the source list for `CCCCCCC=O` [Heptanal]?
Answer: pKi [2]: < 4.30; pIC50 [3]: < 4.30

Question: With `COC(=O)c1ccccc1O` [Methyl salicylate] as the molecule, how does the pIC50 read?
Answer: < 4.30

Question: And the pKi [1]?
Answer: < 4.30

Question: With `C=C1CC/C=C(/C)CC[C@@H]2[C@@H]1CC2(C)C` [ß-caryophyllene] as the molecule, how does the pKi [2] read?
Answer: < 4.30

Question: What about the pIC50 [3] of the same molecule?
Answer: < 4.30

Question: How did the pKi [2] turn out when `CCCCC=O` [Valeric aldehyde] was run?
Answer: < 4.30

Question: And the pIC50 [3]?
Answer: < 4.30

Question: What does the source list for `CCCCC(C)=O` [2-Hexanone]?
Answer: pIC50: < 4.30; pKi [1]: < 4.30

Question: Which results are given for `CC(=O)/C=C/C1=C(C)CCCC1(C)C` [ß-Ionone]?
Answer: pKi [2]: < 4.30; pIC50 [3]: < 4.30

Question: `c1ccc2[nH]ccc2c1` [(H-11)Indole, Indole] was tested. Which pIC50 did it give?
Answer: < 4.30

Question: And the pKi [1]?
Answer: < 4.30

Question: Which results are given for `C=CCSSCC=C` [Diallyl disulfide]?
Answer: pIC50: 5.00; pKi (Ki, pH 7.4, Figure 3B): 5.39; pKi [1]: 5.17; pKi (recombinant BodoOBP8, calculated from IC50 of 1-NPN displacement): > 5.00

Question: How did the pIC50 turn out when `O=Cc1ccccc1` [Benzaldehyde] was run?
Answer: < 4.30

Question: And the pKi [1]?
Answer: < 4.30

Question: How did the pKi [2] turn out when `CCCCCCCCCC=O` [Decanal] was run?
Answer: < 4.30

Question: And the pIC50 [3]?
Answer: < 4.30

Question: What does the source list for `CC(=O)c1ccccc1` [Acetophenone]?
Answer: pKi [2]: < 4.30; pIC50 [3]: < 4.30

Question: Which results are given for `CC12CCC(CC1)C(C)(C)O2` [1,8-Cineole]?
Answer: pKi [2]: < 4.30; pIC50 [3]: < 4.30

Question: With `c1ccc(Nc2cccc3ccccc23)cc1` [1-NPN, N-phenyl-1-naphthylamine, reference compound] as the molecule, how does the pKd read?
Answer: 5.66

Question: With `CCCCCCCCCCCC=O` [Dodecyl aldehyde] as the molecule, how does the pKi [2] read?
Answer: < 4.30

Question: What about the pIC50 [3] of the same molecule?
Answer: < 4.30

Question: With `CCCCCCCCC=O` [Nonanal] as the molecule, how does the pKi [2] read?
Answer: < 4.30

Question: What about the pIC50 [3] of the same molecule?
Answer: < 4.30

Question: Which results are given for `C=CC(C)=CCC=C(C)C` [Ocimene]?
Answer: pKi [2]: < 4.30; pIC50 [3]: < 4.30

Question: How did the pKi [2] turn out when `CCCCCCCCCCCC` [Dodecane] was run?
Answer: < 4.30

Question: And the pIC50 [3]?
Answer: < 4.30

Question: Which results are given for `CCCCCCCCCCCCCC` [Tetradecane]?
Answer: pKi [2]: < 4.30; pIC50 [3]: < 4.30

Question: With `CCCCCCCCCCCCCCCC` [Hexadecane] as the molecule, how does the pKi [2] read?
Answer: < 4.30

Question: And the pIC50 [3]?
Answer: < 4.30

Question: How did the pKi [2] turn out when `CCCCCCCC=O` [Octanal] was run?
Answer: < 4.30

Question: And the pIC50 [3]?
Answer: < 4.30

Question: With `C=CCSSC` [Methyl allyl disulfide] as the molecule, how does the pKi [4] read?
Answer: 5.17

Question: And the pIC50 [3]?
Answer: 5.10

Question: How did the pIC50 turn out when `CC/C=C\CCO` [cis-3-Hexen-1-ol] was run?
Answer: < 4.30

Question: What about the pKi [1] of the same molecule?
Answer: < 4.30

Question: How did the pIC50 turn out when `COC(=O)Cc1ccccc1` [Methyl phenylacetate] was run?
Answer: < 4.30

Question: What about the pKi [1] of the same molecule?
Answer: < 4.30

Question: With `C=C(C)[C@H]1CC=C(C)CC1` [(R)-(+)-Limonene] as the molecule, how does the pKi [2] read?
Answer: < 4.30

Question: What about the pIC50 [3] of the same molecule?
Answer: < 4.30

Question: `CCCCCCCCC` [Nonane] was tested. Which pKi [2] did it give?
Answer: < 4.30

Question: What about the pIC50 [3] of the same molecule?
Answer: < 4.30
